# Results reported in ChEMBL document CHEMBL3885861, “Open TG-GATES”.
# Organism: Rattus norvegicus
# Test: Open TG-GATES - Regimen: Single
# Assay type: toxicity, organism-based, Sprague-Dawley
# Parameters: regimen Single, gender Male, age 6 weeks
# Conditions: in vivo, po, 50 mg/kg, route gavage, dose level Middle; for APTT / Bas / Eos / Fbg / Hb / Ht / Lym / MCH / MCHC / MCV / Mono / Neu / PT / Plat / RBC / Ret / WBC: tissue Blood; for KIDNEY_L / KIDNEY_R / KIDNEY_TOTAL: tissue Kidney; for LIVER: tissue Liver; for A/G / ALP / ALT / AST / BUN / CRE / Ca / Cl / DBIL / GLC / IP / K / LDH / Na / PL / RALB / TBIL / TC / TG / TP / gamma-GTP: tissue Plasma
smiles,measurement,setting,value
CN(C)CCC=C1c2ccccc2CCc2ccccc21 [AMITRIPTYLINE],TERMINAL_BW,3 h,194.1 g
same,APTT,3 h,16.5 s
same,Bas,3 h,0.4%
same,Eos,3 h,1%
same,Fbg,3 h,273 mg/dL
same,Hb,3 h,13.2 g/dL
same,Ht,3 h,41.1%
same,Lym,3 h,74%
same,MCH,3 h,21.1 pg
same,MCHC,3 h,32.2%
same,MCV,3 h,65.4 fL
same,Mono,3 h,3.4%
same,Neu,3 h,20.4%
same,PT,3 h,15.8 s
same,Plat,3 h,128.6 x10_4/uL
same,RBC,3 h,629.2 x10_4/ul
same,Ret,3 h,9.2%
same,WBC,3 h,102.1 x10_2/uL
same,KIDNEY_L,3 h,0.9 g
same,KIDNEY_R,3 h,0.9 g
same,KIDNEY_TOTAL,3 h,1.7 g
same,LIVER,3 h,8.7 g
same,A/G,3 h,0.8
same,ALP,3 h,1574.4 IU/L
same,ALT,3 h,62.8 IU/L
same,AST,3 h,79 IU/L
same,BUN,3 h,8 mg/dL
same,CRE,3 h,0.2 mg/dL
same,Ca,3 h,11 mg/dL
same,Cl,3 h,107.8 meq/L
same,DBIL,3 h,0.012 mg/dL
same,GLC,3 h,192.8 mg/dL
same,IP,3 h,9.3 mg/dL
same,K,3 h,4.2 meq/L
same,LDH,3 h,90.8 IU/L
same,Na,3 h,144.2 meq/L
same,PL,3 h,143.2 mg/dL
same,RALB,3 h,2.5 g/dL
same,TBIL,3 h,0.062 mg/dL
same,TC,3 h,78.8 mg/dL
same,TG,3 h,42.8 mg/dL
same,TP,3 h,5.5 g/dL
same,gamma-GTP,3 h,0.8 IU/L
same,TERMINAL_BW,6 h,191.7 g
same,APTT,6 h,15.9 s
same,Bas,6 h,0.4%
same,Eos,6 h,1%
same,Fbg,6 h,283 mg/dL
same,Hb,6 h,13.1 g/dL
same,Ht,6 h,40.7%
same,Lym,6 h,72.6%
same,MCH,6 h,20.9 pg
same,MCHC,6 h,32.4%
same,MCV,6 h,64.7 fL
same,Mono,6 h,3%
same,Neu,6 h,22.4%
same,PT,6 h,15.9 s
same,Plat,6 h,117.4 x10_4/uL
same,RBC,6 h,629.4 x10_4/ul
same,Ret,6 h,9.3%
same,WBC,6 h,84.5 x10_2/uL
same,KIDNEY_L,6 h,0.9 g
same,KIDNEY_R,6 h,0.9 g
same,KIDNEY_TOTAL,6 h,1.8 g
same,LIVER,6 h,7.9 g
same,A/G,6 h,0.9
same,ALP,6 h,1530.6 IU/L
same,ALT,6 h,47 IU/L
same,AST,6 h,76.4 IU/L
same,BUN,6 h,6.8 mg/dL
same,CRE,6 h,0.1 mg/dL
same,Ca,6 h,10.7 mg/dL
same,Cl,6 h,106.8 meq/L
same,DBIL,6 h,0.006 mg/dL
same,GLC,6 h,179.2 mg/dL
same,IP,6 h,9.9 mg/dL
same,K,6 h,4.1 meq/L
same,LDH,6 h,65.4 IU/L
same,Na,6 h,143.4 meq/L
same,PL,6 h,138.2 mg/dL
same,RALB,6 h,2.5 g/dL
same,TBIL,6 h,0.07 mg/dL
same,TC,6 h,81.2 mg/dL
same,TG,6 h,34.8 mg/dL
same,TP,6 h,5.5 g/dL
same,gamma-GTP,6 h,0.8 IU/L
same,TERMINAL_BW,9 h,188 g
same,APTT,9 h,16.3 s
same,Bas,9 h,0%
same,Eos,9 h,1%
same,Fbg,9 h,282.6 mg/dL
same,Hb,9 h,13.2 g/dL
same,Ht,9 h,40.4%
same,Lym,9 h,74%
same,MCH,9 h,21.1 pg
same,MCHC,9 h,32.7%
same,MCV,9 h,64.5 fL
same,Mono,9 h,2.2%
same,Neu,9 h,22%
same,PT,9 h,15.7 s
same,Plat,9 h,117.9 x10_4/uL
same,RBC,9 h,626.2 x10_4/ul
same,Ret,9 h,8.6%
same,WBC,9 h,86.3 x10_2/uL
same,KIDNEY_L,9 h,0.8 g
same,KIDNEY_R,9 h,0.8 g
same,KIDNEY_TOTAL,9 h,1.6 g
same,LIVER,9 h,7.4 g
same,A/G,9 h,0.9
same,ALP,9 h,1395.8 IU/L
same,ALT,9 h,42.4 IU/L
same,AST,9 h,73.8 IU/L
same,BUN,9 h,8 mg/dL
same,CRE,9 h,0.1 mg/dL
same,Ca,9 h,10.8 mg/dL
same,Cl,9 h,107.2 meq/L
same,DBIL,9 h,0.014 mg/dL
same,GLC,9 h,170.2 mg/dL
same,IP,9 h,9.9 mg/dL
same,K,9 h,4.2 meq/L
same,LDH,9 h,72.8 IU/L
same,Na,9 h,142.4 meq/L
same,PL,9 h,143.4 mg/dL
same,RALB,9 h,2.5 g/dL
same,TBIL,9 h,0.062 mg/dL
same,TC,9 h,79.2 mg/dL
same,TG,9 h,49.8 mg/dL
same,TP,9 h,5.4 g/dL
same,gamma-GTP,9 h,1 IU/L
same,TERMINAL_BW,24 h,205.9 g
same,APTT,24 h,16.7 s
same,Bas,24 h,0.2%
same,Eos,24 h,1%
same,Fbg,24 h,268 mg/dL
same,Hb,24 h,13.1 g/dL
same,Ht,24 h,39.8%
same,Lym,24 h,79.2%
same,MCH,24 h,21.1 pg
same,MCHC,24 h,32.8%
same,MCV,24 h,64.4 fL
same,Mono,24 h,2.6%
same,Neu,24 h,16.2%
same,PT,24 h,16.4 s
same,Plat,24 h,117.1 x10_4/uL
same,RBC,24 h,618.8 x10_4/ul
same,Ret,24 h,8.8%
same,WBC,24 h,101.4 x10_2/uL
same,KIDNEY_L,24 h,0.9 g
same,KIDNEY_R,24 h,0.9 g
same,KIDNEY_TOTAL,24 h,1.7 g
same,LIVER,24 h,9.2 g
same,A/G,24 h,0.8
same,ALP,24 h,1528.4 IU/L
same,ALT,24 h,49.8 IU/L
same,AST,24 h,72.6 IU/L
same,BUN,24 h,14.2 mg/dL
same,CRE,24 h,0.2 mg/dL
same,Ca,24 h,11 mg/dL
same,Cl,24 h,105.2 meq/L
same,DBIL,24 h,0.018 mg/dL
same,GLC,24 h,181.6 mg/dL
same,IP,24 h,7.1 mg/dL
same,K,24 h,4.3 meq/L
same,LDH,24 h,69.2 IU/L
same,Na,24 h,142.6 meq/L
same,PL,24 h,153 mg/dL
same,RALB,24 h,2.6 g/dL
same,TBIL,24 h,0.056 mg/dL
same,TC,24 h,82.6 mg/dL
same,TG,24 h,97.8 mg/dL
same,TP,24 h,5.6 g/dL
same,gamma-GTP,24 h,0.2 IU/L
